Experimental findings from ChEMBL document CHEMBL1201862, “PubChem BioAssay data set” (2004) are described below.

Test systems include ACHN; K562; NCI-H522; RPMI-8226; SW-620; MOLT-4; A498; PC-3; RXF 393; SK-OV-3; SK-MEL-2; M14; SN12C; CAKI-1; SNB-19; T47D; MCF7; HOP-62; Malme-3M.
What all share (test): growth of human tumour cells (NCI), 48 h

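Growth conditions: 96-well plates. Treatment: test compound, 48 hours, 5 concentrations. Analysis: linear interpolation between bracketing concentrations; unreached endpoints set to highest concentration. GI50: concentration for 50% inhibition of growth.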 The source made the active and inactive calls. Rule as the data show it: active = GI50 up to about 1.1 µM and inactive = higher.

As to `CCOC(=O)C1=C(C)N(C)C(=S)NC1c1cccc(O)c1` (stereo not drawn), the GI50 is 71 µM (inactive) in the test with ACHN; 19.7 µM (inactive) in the test on K562; 25.2 µM (inactive) in the test on NCI-H522; 18.7 µM (inactive) in the test on RPMI-8226; 37.5 µM (inactive) in the test on SW-620; 37.8 µM (inactive) with MOLT-4. Also, the GI50 was 24.7 µM (inactive) with A498; 38.5 µM (inactive) in the test on PC-3; 24.3 µM (inactive) with RXF 393; 36.4 µM (inactive) in the test with SK-OV-3; 34.3 µM (inactive) in the test on SK-MEL-2; 29.4 µM (inactive) in the test with M14. The GI50 in the test with SN12C is 31.8 µM (inactive); with CAKI-1 it was 56.6 µM (inactive); in the test with SNB-19, 54.3 µM (inactive); in the test with T47D it was 18.7 µM (inactive); in the test with MCF7, 29.6 µM (inactive); in the test on HOP-62, 77.4 µM (inactive).

Turning to `C=CCOc1ccc2c(C)cc(=O)oc2c1C`, the GI50 with ACHN is 51.8 µM (inactive); in the test with K562, 52.5 µM (inactive); in the test on NCI-H522, 29.2 µM (inactive); with RPMI-8226 it was 35.5 µM (inactive); in the test with SW-620, 67 µM (inactive); in the test on MOLT-4, 35.1 µM (inactive). In addition, the GI50 with A498 was 31.5 µM (inactive); in the test with PC-3, 35.3 µM (inactive); with RXF 393, 23.1 µM (inactive); with SK-MEL-2 it was > 100 µM (inactive); in the test with M14, 46.5 µM (inactive); in the test on Malme-3M it was > 100 µM (inactive). Further, the GI50 with SN12C is 98.4 µM (inactive); with CAKI-1 it was 24.1 µM (inactive); in the test on SNB-19, 61.4 µM (inactive); in the test on T47D it was 47.9 µM (inactive); in the test on MCF7 it was 38.5 µM (inactive); with HOP-62 it was > 100 µM (inactive).

Regarding `O=C(O)C1(Cc2ccc3c(c2)CCC3)Cc2ccccc2C1=O` (stereo not drawn), the GI50 with ACHN was 45.4 µM (inactive); in the test with K562, 50.5 µM (inactive); in the test with RPMI-8226 it was 35.8 µM (inactive); in the test with SW-620, 75.7 µM (inactive); in the test with MOLT-4, 91.4 µM (inactive); with A498 it was 42.5 µM (inactive). Also, the GI50 with PC-3 is 46.7 µM (inactive); in the test with RXF 393 it was > 100 µM (inactive); in the test on SK-OV-3, 50.6 µM (inactive); with SK-MEL-2 it was 46 µM (inactive); in the test on M14, > 100 µM (inactive); in the test with Malme-3M, > 100 µM (inactive). Further, the GI50 with SN12C is 63.7 µM (inactive); in the test with SNB-19 it was 79.3 µM (inactive); in the test with T47D it was 40.9 µM (inactive); with MCF7 it was > 100 µM (inactive); in the test with HOP-62 it was 57.8 µM (inactive).

Consider `COc1ccc(COCC[C@H](C)OC2OC(CO)C(O)C(O)C2O)cc1` (stereo partly drawn), for which the GI50 with ACHN, with K562, in the test with NCI-H522, in the test with RPMI-8226, in the test on SW-620 and with MOLT-4 was > 100 µM (inactive) in each case. For the same molecule, the GI50 in the test with A498, in the test on PC-3, with RXF 393, with SK-OV-3, with SK-MEL-2 and in the test on M14 was > 100 µM (inactive) throughout. The GI50 in the test with SN12C, with CAKI-1, in the test on SNB-19, with T47D, in the test with MCF7 and with HOP-62 was > 100 µM (inactive) throughout.

Consider `OCC(CN1CCCCC1)(CN1CCCCC1)CN1CCCCC1`, for which the GI50 with ACHN, in the test on K562, with NCI-H522, with SW-620, with MOLT-4 and in the test on A498 was > 100 µM (inactive) each time. Further, the GI50 with PC-3, in the test on RXF 393, in the test on SK-OV-3, in the test on M14, in the test with Malme-3M and in the test on SN12C was > 100 µM (inactive) throughout. Also, the GI50 in the test with CAKI-1, with SNB-19, in the test with T47D, with MCF7 and in the test with HOP-62 was > 100 µM (inactive) throughout.

As to `COc1cc(C(=O)/C=C/c2ccc(OCCSCCCCCCCCCCSCCOc3ccc(/C=C/C(=O)c4cc(OC)c(OC)c(OC)c4)cc3)cc2)cc(OC)c1OC`, the GI50 with ACHN, with K562, with NCI-H522, in the test on RPMI-8226, in the test on SW-620 and with MOLT-4 was > 100 µM (inactive) in each case. Besides, the GI50 with A498, in the test on PC-3, in the test on RXF 393, in the test with SK-MEL-2, in the test with M14 and in the test on Malme-3M was > 100 µM (inactive) in each case. Also, the GI50 with SN12C, in the test on CAKI-1, in the test on SNB-19, with T47D, in the test on MCF7 and in the test with HOP-62 was > 100 µM (inactive) each time.

In the case of `O=[N+]([O-])C(Cl)C(Cl)C(Cl)=C(Cl)Cl` (stereo not drawn), the GI50 with ACHN is 16.4 µM (inactive); with K562, 29.8 µM (inactive); in the test with NCI-H522, 21.4 µM (inactive); in the test with SW-620, 18 µM (inactive); with MOLT-4, 19.1 µM (inactive); with A498, > 77.3 µM (inactive). For the same molecule, the GI50 with PC-3 was > 41.3 µM (inactive); with RXF 393, 18.5 µM (inactive); with SK-OV-3, 19.5 µM (inactive); with M14 it was 13.8 µM (inactive); in the test with Malme-3M, 14.8 µM (inactive); in the test on SN12C, 33.7 µM (inactive). The GI50 in the test with CAKI-1 was 17.6 µM (inactive); with SNB-19, 54 µM (inactive); in the test with T47D it was 0.547 µM (active); with MCF7 it was 13.8 µM (inactive); in the test with HOP-62 it was 41.2 µM (inactive).

Regarding `C[C@]12CCC(=O)C=C1CC[C@@H]1[C@@H]2CC[C@]2(C)C(=O)/C(=C\c3ccccc3)C[C@@H]12`, the GI50 is 33.3 µM (inactive) in the test on ACHN; > 100 µM (inactive) in the test on K562; 10.9 µM (inactive) in the test on RPMI-8226; 22.8 µM (inactive) in the test with SW-620; 14 µM (inactive) in the test on MOLT-4; 15.6 µM (inactive) with A498. The GI50 in the test on PC-3 is 12.8 µM (inactive); with RXF 393, 41.1 µM (inactive); in the test on SK-OV-3, 72.3 µM (inactive); in the test on SK-MEL-2 it was 11.7 µM (inactive); with M14 it was 22.4 µM (inactive); in the test with Malme-3M it was 29.4 µM (inactive). For the same molecule, the GI50 with SN12C was 15.1 µM (inactive); in the test with CAKI-1 it was 43.5 µM (inactive); in the test with SNB-19 it was 60.5 µM (inactive); in the test on T47D it was 17.5 µM (inactive); with MCF7, 19.1 µM (inactive); with HOP-62 it was 38.6 µM (inactive).

As for `CC(=O)OCC1OC(n2c(C)c(C(C)=O)c(-c3ccc(Cl)cc3)c(C#N)c2=S)C(OC(C)=O)C(OC(C)=O)C1OC(C)=O` (stereo not drawn), the GI50 in the test with ACHN, in the test on K562, with NCI-H522, in the test with SW-620, in the test on MOLT-4 and with A498 was > 100 µM (inactive) each time. In addition, the GI50 in the test on PC-3, in the test on RXF 393, in the test on SK-OV-3, in the test on SK-MEL-2, with M14 and in the test on Malme-3M was > 100 µM (inactive) throughout. Moreover, the GI50 in the test with SN12C, with SNB-19, in the test on T47D, in the test with MCF7 and with HOP-62 was > 100 µM (inactive) throughout.

For the molecule `CC1=CC(=O)/C(=C/Nc2nc(-c3ccc([N+](=O)[O-])cc3)cs2)C(=O)O1`, the GI50 in the test with ACHN is > 100 µM (inactive); in the test with K562, > 100 µM (inactive); with NCI-H522, 31.6 µM (inactive); with RPMI-8226 it was > 100 µM (inactive); in the test on SW-620, > 100 µM (inactive); in the test on MOLT-4, 61.4 µM (inactive). The GI50 in the test with A498 is 80 µM (inactive); in the test on PC-3, 46.5 µM (inactive); in the test with RXF 393, 27.7 µM (inactive); with SK-OV-3 it was > 100 µM (inactive); in the test on SK-MEL-2 it was > 100 µM (inactive); in the test with M14, > 100 µM (inactive). The GI50 with SN12C was > 100 µM (inactive); in the test on CAKI-1 it was > 100 µM (inactive); in the test with SNB-19 it was 86.5 µM (inactive); in the test on T47D it was > 100 µM (inactive); in the test on MCF7, > 100 µM (inactive); in the test on HOP-62 it was > 100 µM (inactive).

Consider `O=C(O)Cc1c[nH]c2ccc(F)cc12`, for which the GI50 with ACHN, in the test on K562, in the test on RPMI-8226, with SW-620, in the test on MOLT-4 and in the test on A498 was > 100 µM (inactive) throughout. For the same molecule, the GI50 in the test with PC-3, in the test with RXF 393, with SK-OV-3, in the test on SK-MEL-2, in the test on M14 and with SN12C was > 100 µM (inactive) each time. Moreover, the GI50 in the test on CAKI-1, with SNB-19, in the test on T47D, with MCF7 and in the test on HOP-62 was > 100 µM (inactive) throughout.
